For the assay, the target named is T1, Human HM74A (Homo sapiens, UniProt Q8TDS4).
T1 construct: expressed in transfected cells; P2 membrane fractions
T1 sequence (Q8TDS4 whole entry): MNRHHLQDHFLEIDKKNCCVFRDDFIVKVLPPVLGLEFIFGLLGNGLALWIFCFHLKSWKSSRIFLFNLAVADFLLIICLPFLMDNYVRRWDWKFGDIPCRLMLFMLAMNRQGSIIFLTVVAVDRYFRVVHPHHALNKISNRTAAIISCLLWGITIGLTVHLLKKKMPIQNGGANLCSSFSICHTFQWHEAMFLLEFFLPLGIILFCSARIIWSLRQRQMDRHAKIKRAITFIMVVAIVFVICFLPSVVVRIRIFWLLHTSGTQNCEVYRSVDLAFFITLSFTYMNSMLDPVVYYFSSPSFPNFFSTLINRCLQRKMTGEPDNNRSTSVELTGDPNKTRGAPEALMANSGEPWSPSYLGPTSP
Kind of assay: [35S]-GTPγS binding assay on HM74A membranes (10 μl and 50 μl formats). It is filed as biochemical. The note with it: 10 μl and/or 50 μl assay, in which they were tested; +/−0.3 log unit; read-out: pEC50 in the [35S]-GTPγS binding assays (converted). Here is the method:
For transient transfections, HEK293T cells (HEK293 cells stably expressing the SV40 large T-antigen) were maintained in DMEM containing 10% foetal calf serum and 2 mM glutamine. Cells were seeded in 90 mm culture dishes and grown to 60-80% confluence (18-24 h) prior to transfection. Human HM74A (GenBank™ accession number AY148884) was subcloned in to a mammalian expression vector (pcDNA3; Invitrogen) and transfected using Lipofectamine reagent. For transfection, 9 μg of DNA was mixed with 30 μl Lipofectamine in 0.6 ml of Opti-MEM (Life Technologies Inc.) and was incubated at room temperature for 30 min prior to the addition of 1.6 ml of Opti-MEM. Cells were exposed to the Lipofectamine/DNA mixture for 5 h and 6 ml of 20% (v/v) foetal calf serum in DMEM was then added. Cells were harvested 48 h after transfection. Pertussis toxin treatment was carried out by supplementation into media at 50 ngml^−1 for 16 h. All transient transfection studies involved co-transfection of receptor together with the Gi/o G protein, Go1α.
For generation of stable cell lines the above method was used to transfect CHO-K1 cells seeded in six well dishes grown to 30% confluence. These cells were maintained in DMEM F-12 HAM media containing 10% foetal calf serum and 2 mM glutamine. 48 h post-transfection the media was supplemented with 400 μg/ml Geneticin (G418, Gibco) for selection of antibiotic resistant cells. Clonal CHO-K1 cell lines stably expressing HM74A were confirmed by [^35S]-GTPγS binding measurements, following the addition of nicotinic acid.
P2 membrane preparation—Plasma membrane-containing P2 particulate fractions were prepared from cell pastes frozen at −80° C. after harvest. All procedures were carried out at 4° C. Cell pellets were resuspended in 1 ml of 10 mM Tris-HCl and 0.1 mM EDTA, pH 7.5 (buffer A) and by homogenisation for 20 s with a Ultra Turrax followed by passage (5 times) through a 25-gauge needle. Cell lysates were centrifuged at 1,000 g for 10 min in a microcentrifuge to pellet the nuclei and unbroken cells and P2 particulate fractions were recovered by microcentrifugation at 16,000 g for 30 min. P2 particulate fractions were resuspended in buffer A and stored at −80° C. until required.
[^35S]-GTPγS binding—assays were performed at room temperature in 384-well format based on methods described previously, (Wieland, T. and Jakobs, K. H. (1994) Methods Enzymol. 237, 3-13). Briefly, the dilution of standard or test compounds were prepared and added to a 384-well plate in a volume of 10 μl. Membranes (HM74A or HM74) were diluted in assay buffer (20 mM HEPES, 100 mM NaCl, 10 mM MgCl2, pH7.4) supplemented with saponin (60 μg/ml), Leadseeker WGA beads (Amersham; 250 μg/well) and 10 μM GDP, so that the 20 μl volume added to each well contains 5 μg of membranes. [^35S]-GTPγS (1170 Ci/mmol, Amersham) was diluted (1:1500) in assay buffer and 20 μl added to each well. Following the addition of the radioligand, the plates were sealed, pulse spun and incubated for 4 hours at room temperature. At the end of the incubation period the plates were read on a Leadseeker machine (VIEWLUX PLUS; Perkin-Elmer) to determine the levels of specific binding.
These assays were refined by reducing the final assay volume to 10 μl. For this 10 μl assay a revised protocol was used. This involved the use of only 100 nl of standard or test compound per well of a 384-well plate and 1.5 μg membrane and 100 μg Leadseeker WGA beads. For the low volume protocol, membrane, beads and [^35S]-GTPγS were mixed together and then 10 μl of this mix were dispensed to each well. Incubation and plate read were identical for the 10 μl and 50 μl assays.
All exemplified compounds were tested in one or both of the [^35S]-GTPγS binding assays described above (i.e. the 10 μl and 50 μl assays).
Data was analysed by curve fitting as carried out using a Four Parameter Logistical equation using the XC50 software package (max 2 points deleted from any one curve). […]
(In general: GTPγS is a poorly hydrolysed GTP analogue; its binding reports G protein activation.)
As to `O=c1c2[nH]c(Cl)nc2n(CCN2CCCCC2)c(=O)n1CCCc1nc(Cc2ccc(F)cc2F)no1` [8-chloro-1-(3-{3-[(2,4-difluorophenyl)methyl]-1,2,4-oxadiazol-5-yl}propyl)-3-[2-(1-piperidinyl)ethyl]-3,7-dihydro-1H-purine-2,6-dione], the EC50 is greater than 50.1 µM.

Regarding `O=c1c2[nH]c(Cl)nc2n(CCN2CCCC2)c(=O)n1CCCc1nc(Cc2ccc(F)cc2F)no1` [8-chloro-1-(3-{3-[(2,4-difluorophenyl)methyl]-1,2,4-oxadiazol-5-yl}propyl)-3-[2-(1-pyrrolidinyl)ethyl]-3,7-dihydro-1H-purine-2,6-dione], the EC50 is greater than 50.1 µM.

As to `CN(C)C(C)(C)Cn1c(=O)n(CCCc2nc(Cc3ccc(F)cc3F)no2)c(=O)c2[nH]c(Cl)nc21` [8-chloro-1-(3-{3-[(2,4-difluorophenyl)methyl]-1,2,4-oxadiazol-5-yl}propyl)-3-[2-(dimethylamino)-2-methylpropyl]-3,7-dihydro-1H-purine-2,6-dione], the EC50 was greater than 50.1 µM.

Consider `CN(C)CCn1c(=O)n(CCCc2nc(Cc3ccc(F)cc3F)no2)c(=O)c2[nH]c(Cl)nc21` [8-chloro-1-(3-{3-[(2,4-difluorophenyl)methyl]-1,2,4-oxadiazol-5-yl}propyl)-3-[2-(dimethylamino)ethyl]-3,7-dihydro-1H-purine-2,6-dione], for which the EC50 was greater than 50.1 µM.

As for `O=c1c2[nH]c(Cl)nc2n(CCN2CCCCCC2)c(=O)n1CCCc1nc(Cc2ccc(F)cc2F)no1` [8-chloro-1-(3-{3-[(2,4-difluorophenyl)methyl]-1,2,4-oxadiazol-5-yl}propyl)-3-[2-(hexahydro-1H-azepin-1-yl)ethyl]-3,7-dihydro-1H-purine-2,6-dione], the EC50 is greater than 50.1 µM.

In the case of `CN1CCN(CCCn2c(=O)n(CCCc3nc(Cc4ccc(F)cc4F)no3)c(=O)c3[nH]c(Cl)nc32)CC1` [8-chloro-1-(3-{3-[(2,4-difluorophenyl)methyl]-1,2,4-oxadiazol-5-yl}propyl)-3-[3-(4-methyl-1-piperazinyl)propyl]-3,7-dihydro-1H-purine-2,6-dione], the EC50 is greater than 50.1 µM.

As for `CN(C)CCCn1c(=O)n(CCCc2nc(Cc3ccc(F)cc3F)no2)c(=O)c2[nH]c(Cl)nc21` [8-chloro-1-(3-{3-[(2,4-difluorophenyl)methyl]-1,2,4-oxadiazol-5-yl}propyl)-3-[3-(dimethylamino)propyl]-3,7-dihydro-1H-purine-2,6-dione], the EC50 was greater than 50.1 µM.

These data come from US20100179128A1, “XANTHINE DERIVATIVES AS SELECTIVE HM74A AGONISTS” (priority 2005, published 2010).
